# Source: patent US11629171B2, “Beta-hairpin peptidomimetics” (POLYPHOR AG, priority 2017, dated 2023)
# Where a SMILES comes first, the peptide text is derived from it. Bridges are numbered along the chain shown (N, C = ends). Roman numbers before positions name the chains, in order. [ ]: non-standard residue; d: D form. Tle = CC(C)(C)[C@H](N)C(=O)O; Hiv = CC(C)[C@H](O)C(=O)O; dDab = NCC[C@@H](N)C(=O)O; Dab = NCC[C@H](N)C(=O)O; Dap = NC[C@H](N)C(=O)O
# How the values were obtained:
# Type in all cases: cell-based
# [1] = tested on: Acinetobacter baumannii 872842; details: 872842
# Summary of the method: (§1)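 MIC in μg/mL, read as no visible growth after 18-20 hours at 35° C. Peptides were serially diluted two-fold in MH-II broth plus P-80 (0.002% final, v/v) and inoculated at about 10^6 CFU/mL following the CLSI broth microdilution standard.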
# [2] = tested on: Acinetobacter baumannii DSM 30008; details: DSM 30008
# Summary of the method: as §1
# [3] = tested on: Enterobacter cloacae 848840; details: 848840
# Summary of the method: as §1
# Escherichia coli 926415 = details: 926415
# Summary of the method: as §1
# [4] = tested on: Escherichia coli ATCC 25922; details: ATCC 25922
# Summary of the method: as §1
# [5] = tested on: Klebsiella pneumoniae 968733; details: 968733
# Summary of the method: as §1
# [6] = tested on: Klebsiella pneumoniae SSI #3010; details: SSI #3010
# Summary of the method: as §1
# [7] = tested on: Pseudomonas aeruginosa ATCC 27853; details: ATCC 27853
# Summary of the method: as §1
# [8] = tested on: human red blood cells (hRBC); test: Hemolysis; details: red cells of human, 1 h, 200
# Summary of the method: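 Hemoglobin release from PBS-washed hRBC at 20% (v/v), incubated 1 h at 37° C with peptides at 200 μg/mL, is measured at 540 nm. Values are blank corrected and given as a fraction of Triton X-100 lysis × 100%.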
SMILES,MIC [1],MIC [2],MIC [3],MIC (Escherichia coli 926415),MIC [4],MIC [5],MIC [6],MIC [7],Hemolysis at 200 μg/mL [8]
"CC(=O)N[C@H](C(=O)N[C@H]1CCNC(=O)C[C@@H](C(=O)N[C@@H](CO)C(N)=O)NC(=O)[C@H](C(C)(C)C)NC(=O)[C@H](CO)NC(=O)[C@H](Cc2c[nH]c3ccccc23)NC(=O)[C@H](CCN)NC(=O)[C@@H](CCN)NC(=O)[C@H](CCC(=O)N[C@@H](CCN)C(=O)N[C@H](C(=O)N[C@@H](CN)C(=O)N[C@H]2CCNC(=O)[C@H]([C@@H](C)O)NC(=O)[C@H](CCN)NC(=O)[C@H](CCN)NC(=O)[C@H](CC(C)C)NC(=O)[C@@H](CC(C)C)NC(=O)[C@H](CCN)NC2=O)[C@@H](C)O)NC(=O)[C@H](CO)NC(=O)[C@H](Cc2ccc(O)cc2)NC1=O)C(C)C [Ex. 265] (I: Ac-V[Dab]YSE[dDab][Dab]WS[Tle]DS-NH2 / II: [Dab]T[Dap][Dab][Dab][dL]L[Dab][Dab]T; lactam I:2-I:11, II:4-II:C; amide I:5-II:N)",0.125 µg/mL,0.0625 µg/mL,0.5 µg/mL,0.125 µg/mL,0.0625 µg/mL,0.25 µg/mL,0.0625 µg/mL,0.125 µg/mL,<1%
CC(=O)N[C@H](C(=O)N[C@H]1CSSC[C@@H](C(=O)N[C@H](C(N)=O)[C@@H](C)O)NC(=O)[C@H](C(C)C)NC(=O)[C@H](CO)NC(=O)[C@H](Cc2c[nH]c3ccccc23)NC(=O)[C@H](CCN)NC(=O)[C@@H](CCN)NC(=O)[C@H](CCC(=O)N[C@@H](CCN)C(=O)N[C@H](C(=O)N[C@@H](CN)C(=O)N[C@H]2CCNC(=O)[C@H]([C@@H](C)O)NC(=O)[C@H](CCN)NC(=O)[C@H](CCN)NC(=O)[C@H](CC(C)C)NC(=O)[C@@H](CC(C)C)NC(=O)[C@H](CCN)NC2=O)[C@@H](C)O)NC(=O)[C@H](CO)NC(=O)[C@H](Cc2ccc(O)cc2)NC1=O)C(C)C [Ex. 267] (I: Ac-VCYSE[dDab][Dab]WSVCT-NH2 / II: [Dab]T[Dap][Dab][Dab][dL]L[Dab][Dab]T; disulfide I:2-I:11; amide I:5-II:N; lactam II:4-II:C),0.0625 µg/mL,0.0625 µg/mL,0.125 µg/mL,0.0625 µg/mL,0.03125 µg/mL,0.125 µg/mL,0.0625 µg/mL,0.0625 µg/mL,<1%
CC(=O)N[C@H](C(=O)N[C@H]1CSSC[C@@H](C(=O)N[C@@H](CO)C(N)=O)NC(=O)[C@H](C(C)C)NC(=O)[C@H](CCC(=O)O)NC(=O)[C@H](Cc2c[nH]c3ccccc23)NC(=O)[C@H](CCN)NC(=O)[C@@H](CCN)NC(=O)[C@H](CCC(=O)N[C@@H](CCN)C(=O)N[C@H](C(=O)N[C@@H](CN)C(=O)N[C@H]2CCNC(=O)[C@H]([C@@H](C)O)NC(=O)[C@H](CCN)NC(=O)[C@H](CCN)NC(=O)[C@H](CC(C)C)NC(=O)[C@@H](CC(C)C)NC(=O)[C@H](CCN)NC2=O)[C@@H](C)O)NC(=O)[C@H](CO)NC(=O)[C@H](Cc2ccc(O)cc2)NC1=O)C(C)C [Ex. 268] (I: Ac-VCYSE[dDab][Dab]WEVCS-NH2 / II: [Dab]T[Dap][Dab][Dab][dL]L[Dab][Dab]T; disulfide I:2-I:11; amide I:5-II:N; lactam II:4-II:C),0.125 µg/mL,0.03125 µg/mL,0.25 µg/mL,0.5 µg/mL,0.0625 µg/mL,0.5 µg/mL,0.0625 µg/mL,0.125 µg/mL,<1%
CC(C)C[C@@H]1NC(=O)[C@@H](CC(C)C)NC(=O)[C@H](CCN)NC(=O)[C@@H](NC(=O)[C@H](CN)NC(=O)[C@@H](NC(=O)[C@H](CCN)NC(=O)CC[C@@H]2NC(=O)[C@H](CO)NC(=O)[C@H](Cc3ccc(O)cc3)NC(=O)[C@@H](NC(=O)[C@@H](O)C(C)C)CSSC[C@@H](C(=O)N[C@@H](CO)C(N)=O)NC(=O)[C@H](C(C)(C)C)NC(=O)[C@H](CO)NC(=O)[C@H](Cc3c[nH]c4ccccc34)NC(=O)[C@H](CCN)NC(=O)[C@@H](CCN)NC2=O)[C@@H](C)O)CCNC(=O)[C@H]([C@@H](C)O)NC(=O)[C@H](CCN)NC(=O)[C@H](CCN)NC1=O [Ex. 271] (I: H-[Hiv]CYSE[dDab][Dab]WS[Tle]CS-NH2 / II: [Dab]T[Dap][Dab][Dab][dL]L[Dab][Dab]T; disulfide I:2-I:11; amide I:5-II:N; lactam II:4-II:C),0.0625 µg/mL,0.03125 µg/mL,0.25 µg/mL,0.0625 µg/mL,0.03125 µg/mL,0.0625 µg/mL,0.0625 µg/mL,0.0625 µg/mL,<1%
